Here are results for 4 compounds from US20180162871A1, “FLUORESCENT PROBE FOR DETECTING CALPAIN ACTIVITY” (The University of Tokyo, priority 2015, published 2018).

In data set [1] the test system is calpain activity in HeLa cells. Nature of the data set: Live cell imaging of calpain activity in HeLa cells. The data set is classed as cell-based. The conditions noted are these: for visualization of calpain activity in HeLa cells (fluorescence image): 30 minutes with 10 KM of probe, confocal microscope. How it is done: The calpain activity in HeLa cells was visualized by the following procedure using Ac-LLY-HMRG.
(a) HeLa cells were incubated for one hour at 37° C. using FBS (BD Pharmingen stain buffer)-free DMEM (Dulbecco's modified Eagle's medium), and also incubated for 30 minutes by 10 KM of Ac-LLY-HMRG. Fluorescence images and transmission images were taken thereafter using a confocal microscope.
The calpain activity in HeLa cells was visualized by the following procedure using Ac-LM-HMRG.
(a) HeLa cells were incubated for one hour at 37° C. using FBS (BD Pharmingen stain buffer)-free DMEM (Dulbecco's modified Eagle's medium), (b) 1 KM ALLN (calpain selective inhibitor)-containing DMEM (FBS (−)), (c) 2 KM ALLN-containing DMEM (FBS (−)), and (d) 5 KM ALLN-containing DMEM (FBS (−)), and also incubated for 30 minutes by 10 KM of Ac-LM-HMRG. Fluorescence images and transmission images were taken thereafter using a confocal microscope. The results are shown in FIGS. 4a-4d (the left side of each drawing is the fluorescence image; the right side is the transmission image). The scale bar in the drawing is 50 μm.

Data set [2] addresses T1, calpain-1 from human erythrocytes (Homo sapiens, UniProt P07384).
T1 construct: calpain-1 from human erythrocytes; purchased 208713; host or cells: purified from human erythrocytes
T1 sequence (P07384 1-714): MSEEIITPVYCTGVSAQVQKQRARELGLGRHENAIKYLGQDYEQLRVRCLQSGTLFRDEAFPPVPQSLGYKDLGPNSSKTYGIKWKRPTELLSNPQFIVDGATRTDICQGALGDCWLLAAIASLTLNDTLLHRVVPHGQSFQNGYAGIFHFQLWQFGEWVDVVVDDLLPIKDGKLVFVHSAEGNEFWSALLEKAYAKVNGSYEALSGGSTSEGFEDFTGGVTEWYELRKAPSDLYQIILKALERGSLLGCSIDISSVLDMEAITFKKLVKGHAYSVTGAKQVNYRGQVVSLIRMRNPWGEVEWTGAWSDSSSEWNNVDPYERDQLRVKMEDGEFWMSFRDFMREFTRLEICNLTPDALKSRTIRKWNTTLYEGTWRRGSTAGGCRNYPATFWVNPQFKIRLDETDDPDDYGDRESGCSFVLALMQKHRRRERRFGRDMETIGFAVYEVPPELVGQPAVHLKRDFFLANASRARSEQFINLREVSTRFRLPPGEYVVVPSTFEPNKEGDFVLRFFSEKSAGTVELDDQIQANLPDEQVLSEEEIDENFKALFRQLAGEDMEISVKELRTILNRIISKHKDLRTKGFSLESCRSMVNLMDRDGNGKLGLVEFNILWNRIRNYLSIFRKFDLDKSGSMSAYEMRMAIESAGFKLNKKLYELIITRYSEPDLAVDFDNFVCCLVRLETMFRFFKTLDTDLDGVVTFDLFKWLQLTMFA
T1 sequence (P04632 1-268 partner): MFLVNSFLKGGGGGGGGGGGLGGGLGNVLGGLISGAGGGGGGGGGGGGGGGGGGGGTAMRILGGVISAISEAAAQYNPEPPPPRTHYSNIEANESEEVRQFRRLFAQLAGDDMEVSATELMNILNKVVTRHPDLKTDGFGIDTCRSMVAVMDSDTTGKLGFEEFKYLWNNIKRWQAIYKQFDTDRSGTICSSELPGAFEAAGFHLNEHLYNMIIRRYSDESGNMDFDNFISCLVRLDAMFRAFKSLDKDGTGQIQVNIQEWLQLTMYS
Kind of data set: In vitro enzyme assay using calpain (calpain 1). As to conditions: probe 1 μM, 50 mM Tris buffer pH 7.4, 5 μM CaCl2, 25° C., excitation 495 nm, fluorescence 524 nm. The data set is classed as biochemical. On the procedure:
(§1) A calpain enzyme addition assay was conducted in Tris buffer under the following conditions using a probe synthesized and designed by the above method. As a result, the absorption and fluorescence intensity of Ac-LLY-HMRG increased about two-fold due to the enzymatic reaction, and it was confirmed to function as a calpain probe. The results are shown in FIG. 1a (using calpain 1) and FIG. 1b (using calpain 2).
(§2) A quantity of 3 μL of a DMSO solution (1 mM) of the probe was dissolved in 3 mL of 50 mM Tris buffer (pH 7.4) (containing 5 μM of CaCl2 for calpain 1 and 500 μM of CaCl2 for calpain 2) (final probe concentration: 1 μM). […] The excitation wavelength was 495 nm, and the fluorescence wavelength was 524 nm. […]
(§3) A calpain enzyme addition assay was conducted in Tris buffer using a probe synthesized and designed by the above method. As a result, the absorption and fluorescence intensity of Ac-LM-HMRG increased about four-fold due to the enzymatic reaction with calpain 2, and it was confirmed to function as a calpain probe. […]
(§4) A quantity of 3 μL of a DMSO solution (1 mM) of the probe was dissolved in 3 mL of 50 mM Tris buffer (pH 7.4) (containing 5 μM of CaCl2 for calpain 1 and 500 μM of CaCl2 for calpain 2) (final probe concentration: 1 μM). […] The excitation wavelength was 495 nm, and the fluorescence wavelength was 524 nm.

The nature of data set [3]: Measurement of the optical properties. The data set is classed as physicochemical. The conditions noted are these: 0.2 M sodium phosphate buffer of pH 2. How it is done: The optochemical properties of Ac-LLY-HMRG and Ac-LM-HMRG were measured in 0.2 M sodium phosphate buffer of pH 2.
Data set [4] has as its system calpain-2 from porcine kidney. Kind of data set: In vitro enzyme assay using calpain (calpain 2). The data set is classed as biochemical. As to conditions: probe 1 μM, 50 mM Tris buffer pH 7.4, 500 μM CaCl2, 25° C., excitation 495 nm, fluorescence 524 nm. On the procedure: as §1, §2, §3, §4
For the next data set, the system named is mouse NMDA injury model. Kind of data set: Flat-mounted retinas with mouse NMDA injury model. The data set is classed as in vivo, BL6/J mice. As to conditions: Ac-LM-HMRG 0.5 mM, 1 μL to the eye. On the procedure: A study by mouse NMDA injury model was conducted with flat-mounted retinas. […] After one week, the mice were anesthetized by Nembutal, and 1 μL of 30 mM NMDA (PBS solution) or 1 μL of PBS was administered to the vitreous body in the eye. Two weeks later, the mice were again anesthetized by ketamine-xylazine, and Ac-LM-HMRG (0.5 mM, 1 μL, PBS solution) was administered to the eye. One hour after Ac-LM-HMRG administration, Sytox (registered trademark) Orange (for staining cells that have undergone cell death, […], 1 μL, PBS solution) (manufactured by Invitrogen) was administered to the vitreous body. Ten minutes later, the eyeball was removed, fixed for two hours by 4% paraformaldehyde (PFA), and flat-mounted retinas were prepared.

The next data set deals with rat NMDA injury model. Kind of data set: Rat NMDA injury model, fundus photography. The data set is classed as in vivo, SD rats. The conditions noted are these: Ac-LM-HMRG 2 mM, 2 μL to the eye. On the procedure: SD rats were placed under general anesthesia using Nembutal. N-methyl-D-aspartic acid (NMDA) (10 mM, 2 μL) or PBS was administered to the eye. The animals were again placed under anesthesia by ketamine-xylazine mixture four hours later, and Ac-LM-HMRG (2 mM, 2 μL) was administered to the eye. The fundus was photographed by an F10 (Nidec confocal biomicroscope).
In FIGS. 5 and 6, locations indicated by an arrow show nerve cells stained by HMRG.

Non-standard residues stand in square brackets, D forms with d. Residues, ends and D or L forms follow the SMILES beside them. Nle = CCCC[C@H](N)C(=O)O

For the compound `CCCC[C@@H](C=O)NC(=O)[C@H](CC(C)C)NC(=O)[C@H](CC(C)C)NC(C)=O` [ALLN, reference compound] (Ac-Leu-Leu-[Nle]-aldehyde), the “effect of inhibitor on fluorescence intensity within the cells” value in data set [1] (for one hour at 37° C., then 10 KM of Ac-LM-HMRG for 30 minutes) is recorded as “decreased the fluorescence intensity within the cells”.

As to `CSCC[C@H](NC(=O)[C@H](CC(C)C)NC(C)=O)C(=O)Nc1ccc2c(c1)Oc1cc(N)ccc1C21OCc2ccccc21` (stereo partly shown) [Ac-LLY-HMRG], in data set [2], the “increase of absorption and fluorescence intensity due to the enzymatic reaction” value (shortened to “increase”) was “about two-fold”. Moreover, in data set [1], the “visualization of calpain activity in HeLa cells (fluorescence image)” value is reported as “made it possible to monitor the calpain activity inside HeLa cells”. Further, in data set [3], the Absmax is listed as 470 nm, the Emmax is reported as 526 nm and the Φn was determined as 0.19. In addition, the “increase” value in data set [4] is recorded as “about two-fold”.

On to `CC(=O)N[C@@H](CC(C)C)C(=O)N[C@@H](CC(C)C)C(=O)N[C@@H](Cc1ccc(O)cc1)C(=O)Nc1ccc2c(c1)Oc1cc(N)ccc1C21OCc2ccccc21` (stereo partly shown) [Ac-LM-HMRG], for which the “visualization of calpain activity in HeLa cells (fluorescence image)” value in data set [1] is given as “made it possible to monitor the calpain activity inside HeLa cells”. Further, in the data set with mouse NMDA injury model (NMDA group mice), the “staining of flat-mounted retina, NMDA group” value is recorded as “calpain activity was detected”. Further, the “staining of flat-mounted retina, PBS group” value in the data set with mouse NMDA injury model (PBS group mice) is recorded as “not found”. In addition, in data set [3], the Absmax was 470 nm, the Emmax amounted to 529 nm and the Φn is given as 0.32. Besides, the “increase” value in data set [4] is reported as “about four-fold”. The “staining of nerve cells in fundus photograph, NMDA group” value in the data set with rat NMDA injury model (NMDA-administered rats, 30, 60, and 90 minutes after administration) is recorded as “nerve cells were clearly stained”. Further, the “staining of nerve cells in fundus photograph, PBS group” value in the data set on rat NMDA injury model (PBS-administered rats, after 30, 60 and 90 minutes) is “nerve cells were only very slightly stained”.

In data set [3], `N=c1ccc2c(-c3ccccc3CO)c3ccc(N)cc3oc-2c1` [HMRG, reference compound] registered an Absmax of 501 nm, an Emmax of 524 nm and a Φn of 0.81.
